The text below walks through data of patent publication US8183284B2, “Compositions for reducing the incidence of drug induced arrhythmia” (Warner Chilcott Company, LLC, priority 2005, dated 2012).

A short description of the data set: Clinical trials of oral azimilide: incidence of torsades de pointes (TdP). Type of data set: in vivo, patients. As to the method:
Clinical trials are conducted where 5375 patients receive oral doses of azimilide. Patients are administered azimilide using a 3-day, twice daily loading regimen of 150-250 mg/day followed by a daily maintenance regimen (75-125 mg/day) of ½ of the loading dose, or are given daily azimilide (75, 100 or 125 mg/day) without a loading regimen. Overall about 75% of the patients are men and about 25% are women. Two cases of TdP are found in placebo-assigned patients and 54 azimilide-associated cases of TdP. Lack of aspirin use or lack of statin use is more frequent in azimilide patients with TdP. A total of 1191 (22%) patients (243 [16%] females and 948 [25%] males) are taking statins and aspirin as concomitant medication. Among the 54 patients (30 females and 24 males) who experienced TdP, 35% are on aspirin, 20% are on statins and only 11% are taking both a statin and aspirin as concomitant medication.

As to `CN1CCN(CCCCN2C(=O)CN(/N=C/c3ccc(-c4ccc(Cl)cc4)o3)C2=O)CC1` [azimilide], the “azimilide-associated cases of TdP” value (5375 patients receiving oral azimilide 75-125 mg/day, with or without 3-day loading regimen of 150-250 mg/day) is reported as 54 cases. In addition, the “share of patients who experienced TdP that are on aspirin” value (among the 54 patients (30 females, 24 males) who experienced TdP, concomitant aspirin) was determined as 35%. Also, the “share of patients who experienced TdP that are on statins” value (among the 54 patients who experienced TdP, concomitant statins) is reported as 20%. Further, the “share of patients who experienced TdP that are taking both a statin and aspirin” value (among the 54 patients who experienced TdP, overall 1191 (22%) of patients take statins and aspirin) is reported as 11%.
